Key:
Test in all cases: relative viability (nuclei count vs DMSO), 5 days (fraction); higher = more cells survive
CX-5461 + Lapatinib = compound: Cc1cnc(CNC(=O)c2c(=O)c3ccc(N4CCCN(C)CC4)nc3n3c2sc2ccccc23)cn1 [CX-5461] + CS(=O)(=O)CCNCc1ccc(-c2ccc3ncnc(Nc4ccc(OCc5cccc(F)c5)c(Cl)c4)c3c2)o1 [Lapatinib] (partner 2 µM)
Procedure, shortened: (§1)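 After 5 days of treatment, lung cancer cells in 1536-well plates were fixed and stained in a single step (final 0.05% Triton X-100, 1% formaldehyde, 1 ug/ml Hoechst) and their nuclei counted on 4× images. Treatment had been applied by pin tool the day after seeding as one drug alone or as a fixed anchor-drug dose with five library-drug doses (not always all listed) in √10 steps. Relative viability is the nuclei count of treated wells divided by that of vehicle wells, and values are medians of duplicate plates.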

IMD-0354 + Luminespib = compound: O=C(Nc1cc(C(F)(F)F)cc(C(F)(F)F)c1)c1cc(Cl)ccc1O [IMD-0354] + CCNC(=O)c1noc(-c2cc(C(C)C)c(O)cc2O)c1-c1ccc(CN2CCOCC2)cc1 [Luminespib] (partner 0.01 µM)
Procedure, shortened: as §1

IMD-0354 + Palbociclib = compound: O=C(Nc1cc(C(F)(F)F)cc(C(F)(F)F)c1)c1cc(Cl)ccc1O [IMD-0354] + CC(=O)c1c(C)c2cnc(Nc3ccc(N4CCNCC4)cn3)nc2n(C2CCCC2)c1=O [Palbociclib] (partner 0.5 µM)
Procedure, shortened: as §1

IMD-0354 + Phenformin = compound: O=C(Nc1cc(C(F)(F)F)cc(C(F)(F)F)c1)c1cc(Cl)ccc1O [IMD-0354] + N=C(N)NC(=N)NCCc1ccccc1 [Phenformin] (partner 250 µM)
Procedure, shortened: as §1

Cell Line	relative viability (CX-5461 + Lapatinib; first compound 0.01 µM)	relative viability (CX-5461 + Lapatinib; first compound 0.03162 µM)	relative viability (CX-5461 + Lapatinib; first compound 0.1 µM)	relative viability (CX-5461 + Lapatinib; first compound 0.3162 µM)	relative viability (CX-5461 + Lapatinib; first compound 1 µM)	relative viability (IMD-0354 + Luminespib; first compound 0.04 µM)	relative viability (IMD-0354 + Luminespib; first compound 0.1265 µM)	relative viability (IMD-0354 + Luminespib; first compound 0.4 µM)	relative viability (IMD-0354 + Luminespib; first compound 1.265 µM)	relative viability (IMD-0354 + Luminespib; first compound 4 µM)	relative viability (IMD-0354 + Palbociclib; first compound 0.04 µM)	relative viability (IMD-0354 + Palbociclib; first compound 0.1265 µM)	relative viability (IMD-0354 + Palbociclib; first compound 0.4 µM)	relative viability (IMD-0354 + Palbociclib; first compound 1.265 µM)	relative viability (IMD-0354 + Palbociclib; first compound 4 µM)	relative viability (IMD-0354 + Phenformin; first compound 0.04 µM)	relative viability (IMD-0354 + Phenformin; first compound 0.1265 µM)	relative viability (IMD-0354 + Phenformin; first compound 0.4 µM)	relative viability (IMD-0354 + Phenformin; first compound 1.265 µM)	relative viability (IMD-0354 + Phenformin; first compound 4 µM)
NCI-H2347	0.941	0.931	0.963	0.524	0.778	0.523	0.331	0.356	0.395	0.267	0.39	0.418	0.362	0.41	0.405	0.396	0.381	0.272	0.149	0.218
NCI-H2009	0.906	1.04	0.584	0.39	0.466	1.09	0.923	0.675	0.148	0.159	0.179	0.222	0.191	0.103	0.112	0.502	0.324	0.228	0.137	0.15
HCC-15	0.886	0.914	0.869	0.264	0.605	0.236	0.257	0.275	0.104	0.0925	0.733	0.664	0.627	0.289	0.1	0.466	0.37	0.188	0.0833	0.165
HCC-44	0.972	1.01	0.994	1.01	0.69	0.737	1.1	0.786	0.311	0.239	1.06	0.964	0.922	0.661	0.452	0.241	0.32	0.193	0.139	0.105
COR-L23	1.08	0.833	0.674	0.804	0.414	0.583	0.53	0.402	0.115	0.166	0.303	0.278	0.185	0.122	0.12	0.466	0.373	0.263	0.108	0.0986
NCI-H727	0.862	0.997	0.682	0.729	0.631	0.344	0.295	0.371	0.191	0.302	0.502	0.582	0.667	0.709	0.455	0.483	0.407	0.426	0.307	0.402
NCI-H2087	1.13	1.18	1.18	0.407	0.507	0.147	0.183	0.173	0.12	0.127	0.238	0.196	0.21	0.104	0.0948	0.481	0.258	0.206	0.119	0.128
BEN	0.77	0.647	0.821	0.487	0.54	0.159	0.533	0.256	0.161	0.139	0.432	0.428	0.359	0.411	0.318	0.248	0.267	0.229	0.179	0.174
EKVX	0.228	0.206	0.196		0.198	1.05	0.672	0.783	0.767	0.117	0.383	0.343		0.29	0.215	0.254	0.234	0.196	0.106	0.132
LXF-289	0.897	0.936	0.947	0.602	0.487	0.796	0.66	0.564	0.508	0.192	0.565	0.61	0.454	0.435	0.0922	0.548	0.504	0.329	0.124	0.0658
ABC-1	1.17	1.32	1.04		1.05	0.381	0.82	0.32	0.237	0.307	0.638	0.778	0.69		0.432	0.227	0.207	0.224	0.197	0.194
NCI-H650	0.94	1.01	0.915	0.312	0.934	0.791	0.873	0.59	0.381	0.167	0.301	0.283	0.322	0.232	0.189	0.448	0.451	0.371	0.234	0.2
NCI-H1650	0.714	0.714		0.229	0.19	0.215	0.208	0.171	0.196	0.176	0.192	0.389	0.311	0.127	0.181	0.46	0.396	0.304	0.174	0.209
NCI-H2085	0.806	0.718	0.667	0.324	0.615	0.498	0.41	0.409	0.274	0.264	0.461	0.439	0.433	0.281	0.393	0.641	0.69	0.515	0.322	0.232
NCI-H1944	0.777	0.981	0.806		0.655	0.727	0.818	0.669	0.634	0.17	0.289	0.324	0.341	0.382	0.139	0.232	0.197	0.15	0.116	0.148
LC-2-ad	0.971	1.02	0.816	0.685	0.476	1.01	0.87	0.674	0.312	0.226	0.531	0.451	0.333	0.287	0.181	0.612	0.548	0.232	0.267	0.17
